Reference: ChEMBL document CHEMBL1201862, “PubChem BioAssay data set” (2004)
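Cultured in 96-well plates, cells were exposed to test compound for 48 hours across five concentrations. Abbreviation: GI50, concentration required for 50% inhibition of growth.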 Active and inactive are the calls of the source. Cut-off read from the data, not from the text of the source: active = GI50 up to about 1.1 µM and inactive = higher.

Assays:
Test in all cases: NCI anticancer screen, dose series, 48 h
MDA-MB-231 = test system: MDA-MB-231
MCF7 = test system: MCF7
MDA-N = test system: MDA-N
HCT-116 = test system: HCT-116
NCI-H23 = test system: NCI-H23
UO-31 = test system: UO-31
OVCAR-4 = test system: OVCAR-4
RXF 393 = test system: RXF 393
SF-295 = test system: SF-295
HOP-62 = test system: HOP-62
DU-145 = test system: DU-145
SK-MEL-5 = test system: SK-MEL-5
LOX IMVI = test system: LOX IMVI
HL-60 = test system: HL-60
SNB-19 = test system: SNB-19
KM12 = test system: KM12
RPMI-8226 = test system: RPMI-8226
CCRF-CEM = test system: CCRF-CEM
T47D = test system: T47D
EKVX = test system: EKVX

| SMILES | GI50 (MDA-MB-231) | GI50 (MCF7) | GI50 (MDA-N) | GI50 (HCT-116) | GI50 (NCI-H23) | GI50 (UO-31) | GI50 (OVCAR-4) | GI50 (RXF 393) | GI50 (SF-295) | GI50 (HOP-62) | GI50 (DU-145) | GI50 (SK-MEL-5) | GI50 (LOX IMVI) | GI50 (HL-60) | GI50 (SNB-19) | GI50 (KM12) | GI50 (RPMI-8226) | GI50 (CCRF-CEM) | GI50 (T47D) | GI50 (EKVX) |
| --- | --- | --- | --- | --- | --- | --- | --- | --- | --- | --- | --- | --- | --- | --- | --- | --- | --- | --- | --- | --- |
| COC(=O)c1c(O)ccc2c1c1c(n2Cc2ccc(OC)cc2)C(=O)c2ccccc2C1 | 32.4 µM (inactive) | 22.4 µM (inactive) | 53.1 µM (inactive) | 60.4 µM (inactive) | 63.4 µM (inactive) | 41.6 µM (inactive) | 30.8 µM (inactive) | 20.3 µM (inactive) | 47.4 µM (inactive) | > 100 µM (inactive) | > 100 µM (inactive) | 44.6 µM (inactive) | 57.7 µM (inactive) | > 100 µM (inactive) | 71 µM (inactive) | 63.7 µM (inactive) | 8.22 µM (inactive) | 21.9 µM (inactive) | – | – |
| CC1=NN(c2ccccc2)C(=O)C1C(=O)C(=O)Nc1ccc(C)cc1C (stereo not given) | – | > 100 µM (inactive) | – | > 100 µM (inactive) | > 100 µM (inactive) | > 100 µM (inactive) | > 100 µM (inactive) | > 100 µM (inactive) | > 100 µM (inactive) | > 100 µM (inactive) | > 100 µM (inactive) | > 100 µM (inactive) | > 100 µM (inactive) | > 100 µM (inactive) | > 100 µM (inactive) | > 100 µM (inactive) | > 100 µM (inactive) | > 100 µM (inactive) | > 100 µM (inactive) | > 100 µM (inactive) |
| NC(=O)CC[C@H]1C(=O)N=C(N)N1C(=O)OCc1ccccc1 | > 100 µM (inactive) | > 100 µM (inactive) | > 100 µM (inactive) | > 100 µM (inactive) | > 100 µM (inactive) | > 100 µM (inactive) | > 100 µM (inactive) | > 100 µM (inactive) | > 100 µM (inactive) | > 100 µM (inactive) | > 100 µM (inactive) | > 100 µM (inactive) | > 100 µM (inactive) | > 100 µM (inactive) | > 100 µM (inactive) | > 100 µM (inactive) | > 100 µM (inactive) | – | – | > 100 µM (inactive) |
| Nc1ccc2c(SCCSc3c4ccccc4nc4cc(N)ccc34)c3ccccc3nc2c1 | > 100 µM (inactive) | > 100 µM (inactive) | – | 57.4 µM (inactive) | 94.2 µM (inactive) | > 100 µM (inactive) | > 100 µM (inactive) | – | > 100 µM (inactive) | > 100 µM (inactive) | > 100 µM (inactive) | > 100 µM (inactive) | > 100 µM (inactive) | – | > 100 µM (inactive) | > 100 µM (inactive) | > 100 µM (inactive) | 38.5 µM (inactive) | > 100 µM (inactive) | > 100 µM (inactive) |
| CCCCCCOc1ccc(NC2=C(Cl)C(=O)c3cccnc3C2=O)cc1 | – | 1.21 µM (inactive) | 1.59 µM (inactive) | 0.895 µM (active) | 1.74 µM (inactive) | 1.14 µM (inactive) | – | 1.37 µM (inactive) | 3.65 µM (inactive) | 2.17 µM (inactive) | 1.55 µM (inactive) | 1.11 µM (active) | 1.36 µM (inactive) | 1.15 µM (inactive) | 2.7 µM (inactive) | 1.61 µM (inactive) | 0.684 µM (active) | 1.65 µM (inactive) | 1.62 µM (inactive) | 1.67 µM (inactive) |
| NNc1nnc(CCCCCCCCc2nnc(NN)n2N)n1N | 41.5 µM (inactive) | > 100 µM (inactive) | > 100 µM (inactive) | > 100 µM (inactive) | 97.7 µM (inactive) | > 100 µM (inactive) | > 100 µM (inactive) | > 100 µM (inactive) | 76.9 µM (inactive) | 37.2 µM (inactive) | > 100 µM (inactive) | > 100 µM (inactive) | 21.4 µM (inactive) | 24.4 µM (inactive) | 64.3 µM (inactive) | > 100 µM (inactive) | – | > 100 µM (inactive) | – | > 100 µM (inactive) |
| CCOP(=O)(OCC)C1CCCOC1=O (stereo not given) | – | – | – | > 100 µM (inactive) | > 100 µM (inactive) | > 100 µM (inactive) | > 100 µM (inactive) | > 100 µM (inactive) | > 100 µM (inactive) | > 100 µM (inactive) | – | > 100 µM (inactive) | > 100 µM (inactive) | > 100 µM (inactive) | > 100 µM (inactive) | > 100 µM (inactive) | > 100 µM (inactive) | > 100 µM (inactive) | – | > 100 µM (inactive) |
| CC(=O)c1ccc(N2CCN(C3=CC(=O)c4c(O)ccc(O)c4C3=O)CC2)cc1 | 13.4 µM (inactive) | 35.9 µM (inactive) | – | 7.57 µM (inactive) | 34 µM (inactive) | 4.42 µM (inactive) | > 100 µM (inactive) | 47.8 µM (inactive) | 35 µM (inactive) | 29.9 µM (inactive) | > 100 µM (inactive) | > 10 µM (inactive) | – | 10.4 µM (inactive) | 62.4 µM (inactive) | 51.8 µM (inactive) | > 100 µM (inactive) | 15.2 µM (inactive) | > 100 µM (inactive) | > 100 µM (inactive) |
| OCCNCO | – | – | – | > 100 µM (inactive) | > 100 µM (inactive) | > 100 µM (inactive) | > 100 µM (inactive) | > 100 µM (inactive) | > 100 µM (inactive) | > 100 µM (inactive) | – | > 100 µM (inactive) | > 100 µM (inactive) | 46.8 µM (inactive) | > 100 µM (inactive) | > 100 µM (inactive) | > 100 µM (inactive) | > 100 µM (inactive) | – | > 100 µM (inactive) |
| CC1OC(OCC2COC(O)(Oc3c(-c4ccc(O)c(O)c4)oc4cc(O)cc(O)c4c3=O)C(O)C2O)C(O)C(O)C1O (stereo not given) | – | – | – | > 100 µM (inactive) | > 100 µM (inactive) | > 100 µM (inactive) | > 100 µM (inactive) | > 100 µM (inactive) | > 100 µM (inactive) | > 100 µM (inactive) | – | > 100 µM (inactive) | > 100 µM (inactive) | > 100 µM (inactive) | > 100 µM (inactive) | > 100 µM (inactive) | > 100 µM (inactive) | > 100 µM (inactive) | – | > 100 µM (inactive) |
| CCOC(=O)C1=C(Nc2cccc(OC)c2)OCC1=O | > 100 µM (inactive) | > 100 µM (inactive) | – | > 100 µM (inactive) | > 100 µM (inactive) | > 100 µM (inactive) | > 100 µM (inactive) | > 100 µM (inactive) | > 100 µM (inactive) | > 100 µM (inactive) | 68.7 µM (inactive) | > 100 µM (inactive) | > 100 µM (inactive) | > 100 µM (inactive) | > 100 µM (inactive) | > 100 µM (inactive) | > 100 µM (inactive) | > 100 µM (inactive) | > 100 µM (inactive) | > 100 µM (inactive) |
| Cc1ccc(S(=O)(=O)NC(=O)C2=C3SCCN3C(=O)N(S(=O)(=O)c3ccc(C)cc3)C2c2ccccc2)cc1 (stereo not given) | 36.6 µM (inactive) | 29.9 µM (inactive) | – | 36.1 µM (inactive) | 40.6 µM (inactive) | > 100 µM (inactive) | 58.6 µM (inactive) | 25.1 µM (inactive) | 31.5 µM (inactive) | 59.3 µM (inactive) | > 100 µM (inactive) | – | 39.4 µM (inactive) | 43.2 µM (inactive) | 34.8 µM (inactive) | 28.2 µM (inactive) | 26.7 µM (inactive) | 19.4 µM (inactive) | > 100 µM (inactive) | > 100 µM (inactive) |
| COc1cc(-c2nn3c(=O)n(-c4ccc(Cl)cc4)c(=O)nc3s2)cc(OC)c1OC | – | – | – | 33.7 µM (inactive) | 37.6 µM (inactive) | > 76.6 µM (inactive) | 41.9 µM (inactive) | 8.87 µM (inactive) | > 50 µM (inactive) | 18.4 µM (inactive) | – | > 52.4 µM (inactive) | 18.5 µM (inactive) | > 50 µM (inactive) | 19.1 µM (inactive) | > 65.8 µM (inactive) | > 50 µM (inactive) | > 100 µM (inactive) | – | > 86.5 µM (inactive) |
| c1ccc(/C(=N/Nc2cnccn2)c2ncccn2)cc1 | 68.2 µM (inactive) | > 100 µM (inactive) | > 100 µM (inactive) | > 100 µM (inactive) | > 100 µM (inactive) | 29 µM (inactive) | 67.9 µM (inactive) | > 100 µM (inactive) | > 100 µM (inactive) | 53.5 µM (inactive) | 90.2 µM (inactive) | 39.9 µM (inactive) | – | – | > 100 µM (inactive) | 39 µM (inactive) | > 100 µM (inactive) | 28 µM (inactive) | – | 18.2 µM (inactive) |
| COc1c(C)c(C/C=C(\C)CCCC(C)CCCC(C)CCCC(C)C)c(OC)c2ccccc12 (stereo not given) | > 100 µM (inactive) | > 100 µM (inactive) | > 100 µM (inactive) | > 100 µM (inactive) | > 100 µM (inactive) | > 100 µM (inactive) | > 100 µM (inactive) | > 100 µM (inactive) | > 100 µM (inactive) | – | > 100 µM (inactive) | > 100 µM (inactive) | > 100 µM (inactive) | – | > 100 µM (inactive) | > 100 µM (inactive) | > 100 µM (inactive) | > 100 µM (inactive) | – | > 100 µM (inactive) |
| Cc1cc(O)nc(NN2C(Cl)C(=O)C2c2ccc(O)cc2)n1 (stereo not given) | 14 µM (inactive) | 4.03 µM (inactive) | – | 4.81 µM (inactive) | 9.62 µM (inactive) | 10.5 µM (inactive) | 6.95 µM (inactive) | 4.26 µM (inactive) | 9.48 µM (inactive) | 6.17 µM (inactive) | 10.9 µM (inactive) | 8.49 µM (inactive) | 2.69 µM (inactive) | 2.79 µM (inactive) | 11 µM (inactive) | 8.63 µM (inactive) | 2.22 µM (inactive) | 2.81 µM (inactive) | 12.7 µM (inactive) | 13.6 µM (inactive) |
